Tests used:
Experiment in all cases: Test D pre-/postemergence controlled growth environment herbicide test
Assay type in all cases: in vivo
Conditions in all cases: scale 0 to 100
[1] = tested on: barley, spring (spring barley, Hordeum vulgare)
In short: (§1)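 Pre-emergence treatment on silt loam soil and post-emergence treatment of 1- to 4-leaf plants (2–18 cm) in peat-based medium, compounds in a non-phytotoxic solvent with surfactant. Visual rating against untreated controls after 14–21 d in a controlled environment, scale 0 (no effect) to 100 (complete control).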

[2] = tested on: barley, winter (winter barley, Hordeum vulgare)
In short: as §1

[3] = tested on: buckwheat, wild (wild buckwheat, Polygonum convolvulus)
In short: as §1

[4] = tested on: downy bromegrass (Bromus tectorum)
In short: as §1

[5] = tested on: galium (catchweed bedstraw, Galium aparine)
In short: as §1

[6] = tested on: kochia (Kochia scoparia)
In short: as §1

[7] = tested on: mustard, wild (wild mustard, Sinapis arvensis)
In short: as §1

[8] = tested on: oilseed rape (Brassica napus)
In short: as §1

[9] = tested on: pigweed (Amaranthus retroflexus)
In short: as §1

[10] = tested on: ryegrass, Italian (Italian ryegrass, Lolium multiflorum)
In short: as §1

[11] = tested on: wheat, winter (winter wheat, Triticum aestivum)
In short: as §1

Measured: Plant response rating

COc1cc(=O)n(-c2ccc(F)cc2)nc1Cc1ccnc(C(F)(F)F)c1 [Compound 17, 2-(4-fluorophenyl)-5-methoxy-6-[[2-(trifluoromethyl)-4-pyridinyl]methyl]-3 (2H)-pyridazinone]
75: [2]; Preemergence, 250 g ai/ha | [3]; Postemergence, 250 g ai/ha | [8]; Postemergence, 125 g ai/ha
40: [2]; Preemergence, 125 g ai/ha | [3]; Postemergence, 125 g ai/ha | [8]; Preemergence, 125 g ai/ha
70: [1]; Preemergence, 250 g ai/ha | [5]; Postemergence, 62 g ai/ha | [6]; Postemergence, 125 g ai/ha | [9]; Postemergence, 250 g ai/ha
10: [1]; Postemergence, 62 g ai/ha | [2]; Preemergence, 31 g ai/ha | [3]; Postemergence, 31 g ai/ha | [3]; Postemergence, 62 g ai/ha | [3]; Preemergence, 62 g ai/ha | [4]; Postemergence, 31 g ai/ha | [4]; Postemergence, 62 g ai/ha | [4]; Preemergence, 31 g ai/ha | [4]; Preemergence, 62 g ai/ha | [9]; Preemergence, 31 g ai/ha | [10]; Postemergence, 31 g ai/ha | [10]; Postemergence, 62 g ai/ha | [10]; Postemergence, 125 g ai/ha | [11]; Postemergence, 125 g ai/ha | [11]; Postemergence, 250 g ai/ha
85: [8]; Postemergence, 250 g ai/ha
98: [5]; Postemergence, 250 g ai/ha
55: [8]; Postemergence, 62 g ai/ha
25: [2]; Postemergence, 125 g ai/ha | [4]; Postemergence, 250 g ai/ha | [6]; Postemergence, 31 g ai/ha | [8]; Preemergence, 31 g ai/ha | [8]; Preemergence, 62 g ai/ha
100: [3]; Postemergence, 500 g ai/ha | [3]; Preemergence, 250 g ai/ha | [3]; Preemergence, 500 g ai/ha | [5]; Postemergence, 500 g ai/ha | [5]; Preemergence, 250 g ai/ha | [5]; Preemergence, 500 g ai/ha | [6]; Preemergence, 31 g ai/ha | [6]; Preemergence, 62 g ai/ha | [6]; Preemergence, 125 g ai/ha | [6]; Preemergence, 250 g ai/ha | [6]; Preemergence, 500 g ai/ha | [7]; Postemergence, 250 g ai/ha | [7]; Postemergence, 500 g ai/ha | [7]; Preemergence, 31 g ai/ha | [7]; Preemergence, 62 g ai/ha | [7]; Preemergence, 125 g ai/ha | [7]; Preemergence, 250 g ai/ha | [7]; Preemergence, 500 g ai/ha | [8]; Postemergence, 500 g ai/ha | [9]; Preemergence, 62 g ai/ha | [9]; Preemergence, 125 g ai/ha | [9]; Preemergence, 250 g ai/ha | [9]; Preemergence, 500 g ai/ha
80: [2]; Preemergence, 500 g ai/ha | [6]; Postemergence, 250 g ai/ha | [7]; Postemergence, 125 g ai/ha | [10]; Preemergence, 500 g ai/ha
50: [4]; Preemergence, 500 g ai/ha | [5]; Postemergence, 31 g ai/ha | [7]; Postemergence, 62 g ai/ha | [8]; Postemergence, 31 g ai/ha | [10]; Preemergence, 250 g ai/ha
0: [3]; Preemergence, 31 g ai/ha | [10]; Preemergence, 31 g ai/ha | [10]; Preemergence, 62 g ai/ha | [10]; Preemergence, 125 g ai/ha | [11]; Postemergence, 31 g ai/ha | [11]; Preemergence, 31 g ai/ha | [11]; Preemergence, 62 g ai/ha | [11]; Preemergence, 125 g ai/ha
30: [2]; Postemergence, 250 g ai/ha | [3]; Preemergence, 125 g ai/ha | [4]; Postemergence, 500 g ai/ha | [4]; Preemergence, 250 g ai/ha | [9]; Postemergence, 62 g ai/ha | [9]; Postemergence, 125 g ai/ha | [11]; Preemergence, 250 g ai/ha
15: [1]; Postemergence, 125 g ai/ha | [1]; Postemergence, 250 g ai/ha | [1]; Preemergence, 31 g ai/ha | [2]; Postemergence, 31 g ai/ha | [2]; Postemergence, 62 g ai/ha | [4]; Postemergence, 125 g ai/ha | [4]; Preemergence, 125 g ai/ha | [10]; Postemergence, 250 g ai/ha
5: [1]; Postemergence, 31 g ai/ha | [5]; Preemergence, 31 g ai/ha | [5]; Preemergence, 62 g ai/ha | [11]; Postemergence, 62 g ai/ha
95: [9]; Postemergence, 500 g ai/ha
90: [1]; Preemergence, 500 g ai/ha | [5]; Postemergence, 125 g ai/ha | [6]; Postemergence, 500 g ai/ha | [8]; Preemergence, 250 g ai/ha | [8]; Preemergence, 500 g ai/ha | [11]; Preemergence, 500 g ai/ha
35: [1]; Postemergence, 500 g ai/ha | [2]; Postemergence, 500 g ai/ha | [10]; Postemergence, 500 g ai/ha
60: [6]; Postemergence, 62 g ai/ha
20: [1]; Preemergence, 62 g ai/ha | [1]; Preemergence, 125 g ai/ha | [2]; Preemergence, 62 g ai/ha | [5]; Preemergence, 125 g ai/ha | [7]; Postemergence, 31 g ai/ha | [9]; Postemergence, 31 g ai/ha | [11]; Postemergence, 500 g ai/ha

From patent US10202361B2, “Pyridazinones as herbicides” (E I DU PONT DE NEMOURS AND COMPANY, priority 2014, dated 2019)
